In the kinase profiling compilation of Christmann-Franck et al. (2016):

Tests used:
Assay in all cases: radiometric filter-binding kinase assay, Kinase HotSpot
Conditions in all cases: compound 0.5 µM; ATP 10 µM
MAP4K4 (human) = MAP4K4 (human) (UniProt O95819)
PIM2 (human) = PIM2 (human) (UniProt Q9P1W9)
PRKCI (human) = PRKCI (human) (UniProt P41743)
GRK6 (human) = GRK6 (human) (UniProt P43250)
DYRK3 (human) = DYRK3 (human) (UniProt O43781)
ROCK1 (human) = ROCK1 (human) (UniProt Q13464)
EPHB2 (human) = EPHB2 (human) (UniProt P29323)
BMX (human) = BMX (human) (UniProt P51813)
TNK2 (human) = TNK2 (human) (UniProt Q07912)
TSSK2 (human) = TSSK2 (human) (UniProt Q96PF2)
STK39 (human) = STK39 (human) (UniProt Q9UEW8)
MAP3K11 (human) = MAP3K11 (human) (UniProt Q16584)
CDK9 CCNT1 (human) = CDK9 CCNT1 (human) (UniProt P50750+O60563)
DAPK1 (human) = DAPK1 (human) (UniProt P53355)
NTRK1 (human) = NTRK1 (human) (UniProt P04629)
ULK2 (human) = ULK2 (human) (UniProt Q8IYT8)
MARK3 (human) = MARK3 (human) (UniProt P27448)
ACVR1B (human) = ACVR1B (human) (UniProt P36896)
CDK2 CCNE1 (human) = CDK2 CCNE1 (human) (UniProt P24941+P24864)
IRAK1 (human) = IRAK1 (human) (UniProt P51617)
DAPK2 (human) = DAPK2 (human) (UniProt Q9UIK4)
[1] = molecular target: TYK2 JH1 catalytic (human) (UniProt P29597)
MAP3K3 (human) = MAP3K3 (human) (UniProt Q99759)
CSNK1A1 (human) = CSNK1A1 (human) (UniProt P48729)
JAK3 JH1 JH2 (human) = JAK3 JH1 JH2 (human) (UniProt P52333)
STK33 (human) = STK33 (human) (UniProt Q9BYT3)
CSNK1G3 (human) = CSNK1G3 (human) (UniProt Q9Y6M4)
PTK2B (human) = PTK2B (human) (UniProt Q14289)
CAMK2G (human) = CAMK2G (human) (UniProt Q13555)
BRSK1 (human) = BRSK1 (human) (UniProt Q8TDC3)
STK3 (human) = STK3 (human) (UniProt Q13188)
PRKD1 (human) = PRKD1 (human) (UniProt Q15139)
EPHA4 (human) = EPHA4 (human) (UniProt P54764)
CLK4 (human) = CLK4 (human) (UniProt Q9HAZ1)
CDK6 CCND3 (human) = CDK6 CCND3 (human) (UniProt P30281+Q00534)
CLK1 (human) = CLK1 (human) (UniProt P49759)
MAP3K8 (human) = MAP3K8 (human) (UniProt P41279)
CLK3 (human) = CLK3 (human) (UniProt P49761)
EPHB4 (human) = EPHB4 (human) (UniProt P54760)
PRKX (human) = PRKX (human) (UniProt P51817)
RIPK2 (human) = RIPK2 (human) (UniProt O43353)
CDC42BPB (human) = CDC42BPB (human) (UniProt Q9Y5S2)

Chain of CDK9 CCNT1 (human) (O60563 whole entry, looked up): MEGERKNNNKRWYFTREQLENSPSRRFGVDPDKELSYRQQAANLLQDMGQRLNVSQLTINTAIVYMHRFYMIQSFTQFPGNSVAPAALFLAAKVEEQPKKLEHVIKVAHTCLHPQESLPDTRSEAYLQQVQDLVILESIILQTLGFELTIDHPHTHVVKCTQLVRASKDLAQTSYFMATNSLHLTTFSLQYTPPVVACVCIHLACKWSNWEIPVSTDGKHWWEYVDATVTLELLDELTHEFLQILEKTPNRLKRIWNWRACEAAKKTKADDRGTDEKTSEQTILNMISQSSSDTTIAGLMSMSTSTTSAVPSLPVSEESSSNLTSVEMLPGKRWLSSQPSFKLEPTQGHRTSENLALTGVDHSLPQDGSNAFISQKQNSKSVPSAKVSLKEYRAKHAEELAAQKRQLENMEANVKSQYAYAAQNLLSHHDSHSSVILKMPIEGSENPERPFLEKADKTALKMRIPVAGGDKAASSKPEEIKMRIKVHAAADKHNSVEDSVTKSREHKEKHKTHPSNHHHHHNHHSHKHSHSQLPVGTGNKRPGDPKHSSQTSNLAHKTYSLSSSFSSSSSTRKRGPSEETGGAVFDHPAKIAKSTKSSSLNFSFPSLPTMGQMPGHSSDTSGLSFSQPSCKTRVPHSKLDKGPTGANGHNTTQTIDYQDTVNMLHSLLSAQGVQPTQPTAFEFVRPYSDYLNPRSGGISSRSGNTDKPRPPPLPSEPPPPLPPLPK
Chain of CDK9 CCNT1 (human) (P50750 whole entry, looked up): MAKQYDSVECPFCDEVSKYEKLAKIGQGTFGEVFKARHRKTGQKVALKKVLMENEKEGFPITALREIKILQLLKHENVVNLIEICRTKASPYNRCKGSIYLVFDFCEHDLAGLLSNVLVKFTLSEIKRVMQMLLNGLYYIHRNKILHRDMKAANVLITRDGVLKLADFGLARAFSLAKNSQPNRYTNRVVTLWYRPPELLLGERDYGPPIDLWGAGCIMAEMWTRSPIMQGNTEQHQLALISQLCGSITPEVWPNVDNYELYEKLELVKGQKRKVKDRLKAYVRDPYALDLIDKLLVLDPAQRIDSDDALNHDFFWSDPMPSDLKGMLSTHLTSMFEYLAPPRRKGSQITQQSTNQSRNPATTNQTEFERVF
Chain of MAP3K3 (human) (Q99759 whole entry, looked up): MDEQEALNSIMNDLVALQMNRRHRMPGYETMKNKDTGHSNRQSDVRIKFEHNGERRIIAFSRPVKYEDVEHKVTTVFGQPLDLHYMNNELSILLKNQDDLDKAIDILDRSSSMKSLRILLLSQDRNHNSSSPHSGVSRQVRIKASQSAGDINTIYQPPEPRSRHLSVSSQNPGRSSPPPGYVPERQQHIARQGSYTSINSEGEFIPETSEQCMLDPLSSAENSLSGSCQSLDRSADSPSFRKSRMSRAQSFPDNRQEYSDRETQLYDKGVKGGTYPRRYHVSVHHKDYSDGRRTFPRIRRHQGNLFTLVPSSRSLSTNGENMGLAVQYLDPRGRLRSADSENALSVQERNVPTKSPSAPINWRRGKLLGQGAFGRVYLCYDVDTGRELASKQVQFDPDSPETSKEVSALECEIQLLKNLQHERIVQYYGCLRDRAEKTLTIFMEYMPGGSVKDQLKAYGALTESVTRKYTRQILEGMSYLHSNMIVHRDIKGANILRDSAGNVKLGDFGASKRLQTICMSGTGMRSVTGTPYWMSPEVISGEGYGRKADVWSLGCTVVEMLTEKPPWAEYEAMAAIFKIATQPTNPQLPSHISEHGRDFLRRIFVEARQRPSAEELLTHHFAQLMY
Chain of PIM2 (human) (Q9P1W9 whole entry, looked up): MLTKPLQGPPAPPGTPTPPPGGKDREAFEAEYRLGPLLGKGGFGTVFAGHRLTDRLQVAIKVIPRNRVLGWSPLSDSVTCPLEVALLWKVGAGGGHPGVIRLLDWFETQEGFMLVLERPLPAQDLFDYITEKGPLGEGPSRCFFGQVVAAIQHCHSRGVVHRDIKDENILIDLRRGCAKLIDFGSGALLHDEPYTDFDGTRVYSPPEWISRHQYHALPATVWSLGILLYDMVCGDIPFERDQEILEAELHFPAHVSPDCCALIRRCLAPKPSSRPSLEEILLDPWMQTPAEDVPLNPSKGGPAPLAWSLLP
Chain of MAP3K11 (human) (Q16584 whole entry, looked up): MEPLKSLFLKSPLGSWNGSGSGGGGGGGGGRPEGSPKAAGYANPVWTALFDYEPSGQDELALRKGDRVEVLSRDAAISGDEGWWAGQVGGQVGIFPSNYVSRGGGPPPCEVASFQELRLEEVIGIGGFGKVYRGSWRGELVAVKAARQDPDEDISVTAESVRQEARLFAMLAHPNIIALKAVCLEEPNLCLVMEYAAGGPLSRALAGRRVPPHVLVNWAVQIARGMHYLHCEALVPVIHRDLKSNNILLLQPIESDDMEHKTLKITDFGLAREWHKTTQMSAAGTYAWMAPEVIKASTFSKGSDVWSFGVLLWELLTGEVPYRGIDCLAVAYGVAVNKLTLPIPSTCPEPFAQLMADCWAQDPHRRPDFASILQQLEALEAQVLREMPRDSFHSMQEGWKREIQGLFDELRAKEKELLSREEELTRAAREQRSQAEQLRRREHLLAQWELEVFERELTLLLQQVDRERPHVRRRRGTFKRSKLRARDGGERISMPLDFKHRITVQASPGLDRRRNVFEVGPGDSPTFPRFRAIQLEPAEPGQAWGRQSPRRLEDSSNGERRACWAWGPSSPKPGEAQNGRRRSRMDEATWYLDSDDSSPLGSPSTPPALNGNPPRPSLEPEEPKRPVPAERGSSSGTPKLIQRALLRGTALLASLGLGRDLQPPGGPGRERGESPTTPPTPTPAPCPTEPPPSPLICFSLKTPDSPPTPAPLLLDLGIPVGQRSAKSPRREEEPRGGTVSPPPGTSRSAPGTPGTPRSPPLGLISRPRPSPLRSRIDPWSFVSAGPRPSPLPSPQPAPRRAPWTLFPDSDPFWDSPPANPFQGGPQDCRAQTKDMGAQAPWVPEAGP
Chain of STK33 (human) (Q9BYT3 whole entry, looked up): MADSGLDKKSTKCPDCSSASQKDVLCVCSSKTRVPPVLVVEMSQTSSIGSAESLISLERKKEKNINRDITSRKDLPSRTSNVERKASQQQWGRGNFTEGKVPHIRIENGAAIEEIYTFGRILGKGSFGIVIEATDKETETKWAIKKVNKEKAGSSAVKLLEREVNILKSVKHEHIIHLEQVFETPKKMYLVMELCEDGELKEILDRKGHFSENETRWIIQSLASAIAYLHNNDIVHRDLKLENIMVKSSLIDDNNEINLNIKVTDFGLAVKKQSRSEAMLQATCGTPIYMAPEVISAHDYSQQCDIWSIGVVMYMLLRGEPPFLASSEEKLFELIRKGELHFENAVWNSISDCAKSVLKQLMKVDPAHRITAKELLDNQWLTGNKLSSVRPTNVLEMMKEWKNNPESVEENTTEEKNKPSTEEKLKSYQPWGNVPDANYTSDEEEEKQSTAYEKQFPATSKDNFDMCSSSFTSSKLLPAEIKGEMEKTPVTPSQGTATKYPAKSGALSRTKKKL
Chain of NTRK1 (human) (P04629 whole entry, looked up): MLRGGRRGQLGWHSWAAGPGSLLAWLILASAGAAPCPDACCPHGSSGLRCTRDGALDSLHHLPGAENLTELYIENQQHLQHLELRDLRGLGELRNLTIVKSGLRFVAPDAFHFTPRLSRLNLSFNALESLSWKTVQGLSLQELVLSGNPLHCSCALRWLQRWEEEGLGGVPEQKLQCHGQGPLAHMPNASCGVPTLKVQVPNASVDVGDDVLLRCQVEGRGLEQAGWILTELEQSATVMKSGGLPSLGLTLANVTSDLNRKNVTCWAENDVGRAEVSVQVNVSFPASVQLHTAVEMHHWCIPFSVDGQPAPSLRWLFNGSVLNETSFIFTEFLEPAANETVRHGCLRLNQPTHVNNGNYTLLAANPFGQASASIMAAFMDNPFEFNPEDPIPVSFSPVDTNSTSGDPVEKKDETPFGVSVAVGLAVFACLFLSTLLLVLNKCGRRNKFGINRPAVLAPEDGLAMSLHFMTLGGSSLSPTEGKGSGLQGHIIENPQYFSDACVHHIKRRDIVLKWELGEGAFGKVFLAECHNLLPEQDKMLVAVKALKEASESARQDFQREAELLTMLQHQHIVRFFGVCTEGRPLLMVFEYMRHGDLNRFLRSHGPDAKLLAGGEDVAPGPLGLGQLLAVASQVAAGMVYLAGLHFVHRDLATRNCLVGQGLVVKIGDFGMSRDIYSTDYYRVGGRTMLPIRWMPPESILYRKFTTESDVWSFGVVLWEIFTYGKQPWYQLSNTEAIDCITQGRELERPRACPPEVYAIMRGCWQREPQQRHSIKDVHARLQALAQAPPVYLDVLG
Chain of GRK6 (human) (P43250 whole entry, looked up): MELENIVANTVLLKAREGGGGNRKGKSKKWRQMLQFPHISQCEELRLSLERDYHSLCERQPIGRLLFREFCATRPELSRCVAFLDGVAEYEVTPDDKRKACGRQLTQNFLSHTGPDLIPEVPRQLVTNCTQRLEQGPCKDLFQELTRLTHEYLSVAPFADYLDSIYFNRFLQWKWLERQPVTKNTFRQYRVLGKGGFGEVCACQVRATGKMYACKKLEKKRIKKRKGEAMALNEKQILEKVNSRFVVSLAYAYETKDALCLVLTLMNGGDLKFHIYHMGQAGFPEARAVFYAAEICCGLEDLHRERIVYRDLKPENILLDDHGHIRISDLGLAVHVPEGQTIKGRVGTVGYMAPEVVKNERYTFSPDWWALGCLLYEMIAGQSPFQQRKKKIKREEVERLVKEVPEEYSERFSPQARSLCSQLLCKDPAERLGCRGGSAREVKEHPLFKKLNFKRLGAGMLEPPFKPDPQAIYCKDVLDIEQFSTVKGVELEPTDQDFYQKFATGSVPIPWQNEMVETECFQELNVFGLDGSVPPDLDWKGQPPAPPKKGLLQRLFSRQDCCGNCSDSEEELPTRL

COc1cc2ncnc(Nc3ccc(F)c(Cl)c3)c2cc1OCCCN1CCOCC1
residual activity (MAP4K4 (human)): 97.8%
residual activity (PIM2 (human)): 96.2%
residual activity (PRKCI (human)): 96.9%
residual activity (GRK6 (human)): 99.6%
residual activity (DYRK3 (human)): 85%
residual activity (ROCK1 (human)): 106%
residual activity (EPHB2 (human)): 87.7%
residual activity (BMX (human)): 102%
residual activity (TNK2 (human)): 72.8%
residual activity (TSSK2 (human)): 91.5%
residual activity (STK39 (human)): 93.5%
residual activity (MAP3K11 (human)): 102%
residual activity (CDK9 CCNT1 (human)): 87.3%
residual activity (DAPK1 (human)): 109%
residual activity (NTRK1 (human)): 103%
residual activity (ULK2 (human)): 104%
residual activity (MARK3 (human)): 94.5%
residual activity (ACVR1B (human)): 99.6%
residual activity (CDK2 CCNE1 (human)): 101%
residual activity (IRAK1 (human)): 57.6%
residual activity (DAPK2 (human)): 93.2%
residual activity [1]: 102%
residual activity (MAP3K3 (human)): 107%
residual activity (CSNK1A1 (human)): 98.6%
residual activity (JAK3 JH1 JH2 (human)): 96.6%
residual activity (STK33 (human)): 90.4%
residual activity (CSNK1G3 (human)): 103%
residual activity (PTK2B (human)): 98.9%
residual activity (CAMK2G (human)): 128%
residual activity (BRSK1 (human)): 92.5%
residual activity (STK3 (human)): 93.6%
residual activity (PRKD1 (human)): 85.4%
residual activity (EPHA4 (human)): 90.2%
residual activity (CLK4 (human)): 107%
residual activity (CDK6 CCND3 (human)): 118%
residual activity (CLK1 (human)): 105%
residual activity (MAP3K8 (human)): 95.7%
residual activity (CLK3 (human)): 106%

Nc1nc(Nc2ccc(S(N)(=O)=O)cc2)nn1C(=S)Nc1c(F)cccc1F
residual activity (MAP4K4 (human)): 4.46%
residual activity (PIM2 (human)): 106%
residual activity (PRKCI (human)): 78.9%
residual activity (EPHB4 (human)): 51%
residual activity (GRK6 (human)): 89.4%
residual activity (DYRK3 (human)): 98.5%
residual activity (ROCK1 (human)): 0.17%
residual activity (EPHB2 (human)): 81.4%
residual activity (BMX (human)): 77.5%
residual activity (TNK2 (human)): 6.41%
residual activity (TSSK2 (human)): 91.3%
residual activity (STK39 (human)): 76.5%
residual activity (PRKX (human)): 76.3%
residual activity (MAP3K11 (human)): 1.33%
residual activity (CDK9 CCNT1 (human)): 15.6%
residual activity (DAPK1 (human)): 81.3%
residual activity (NTRK1 (human)): 31.7%
residual activity (ULK2 (human)): 4.73%
residual activity (MARK3 (human)): 0.29%
residual activity (ACVR1B (human)): 92.2%
residual activity (CDK2 CCNE1 (human)): 8.92%
residual activity (RIPK2 (human)): 19.7%
residual activity (IRAK1 (human)): 16.9%
residual activity (DAPK2 (human)): 83%
residual activity [1]: 5.11%
residual activity (CDC42BPB (human)): 48.1%
residual activity (MAP3K3 (human)): 5.41%
residual activity (JAK3 JH1 JH2 (human)): 5.21%
residual activity (STK33 (human)): 35.1%
residual activity (CSNK1G3 (human)): 20.8%
residual activity (PTK2B (human)): 33.6%
residual activity (CAMK2G (human)): 15.6%
residual activity (BRSK1 (human)): 2.61%
residual activity (STK3 (human)): 1.33%
residual activity (PRKD1 (human)): 7.79%
residual activity (EPHA4 (human)): 54.8%
residual activity (CLK4 (human)): 1.92%
residual activity (CDK6 CCND3 (human)): 7.69%
residual activity (CLK1 (human)): 2.26%
residual activity (MAP3K8 (human)): 127%
residual activity (CLK3 (human)): 4.64%

Nc1nc(Nc2ccc(S(N)(=O)=O)cc2)nn1C(=O)c1c(F)cccc1F
residual activity (MAP4K4 (human)): 83.8%
residual activity (PIM2 (human)): 113%
residual activity (PRKCI (human)): 87.6%
residual activity (EPHB4 (human)): 81%
residual activity (GRK6 (human)): 77.2%
residual activity (DYRK3 (human)): 101%
residual activity (ROCK1 (human)): 42.6%
residual activity (EPHB2 (human)): 96.1%
residual activity (TNK2 (human)): 68%
residual activity (TSSK2 (human)): 103%
residual activity (STK39 (human)): 89.5%
residual activity (PRKX (human)): 89%
residual activity (MAP3K11 (human)): 47.2%
residual activity (CDK9 CCNT1 (human)): 27.6%
residual activity (DAPK1 (human)): 93.8%
residual activity (NTRK1 (human)): 98.8%
residual activity (ULK2 (human)): 102%
residual activity (MARK3 (human)): 67.6%
residual activity (ACVR1B (human)): 118%
residual activity (CDK2 CCNE1 (human)): 7.15%
residual activity (RIPK2 (human)): 77.8%
residual activity (IRAK1 (human)): 89.8%
residual activity (DAPK2 (human)): 107%
residual activity [1]: 0.878%
residual activity (CDC42BPB (human)): 96%
residual activity (MAP3K3 (human)): 27.5%
residual activity (CSNK1A1 (human)): 95.1%
residual activity (JAK3 JH1 JH2 (human)): 8.5%
residual activity (STK33 (human)): 74.4%
residual activity (PTK2B (human)): 79.7%
residual activity (CAMK2G (human)): 104%
residual activity (BRSK1 (human)): 49.2%
residual activity (STK3 (human)): 34.3%
residual activity (PRKD1 (human)): 66.5%
residual activity (EPHA4 (human)): 91.3%
residual activity (CLK4 (human)): 41.6%
residual activity (CDK6 CCND3 (human)): 36.3%
residual activity (CLK1 (human)): 85.1%
residual activity (MAP3K8 (human)): 94.4%
residual activity (CLK3 (human)): 65.8%
